Experimental data: ChEMBL document CHEMBL2150847, “Scaffold hopping strategy toward original pyrazolines as selective CB₂ receptor ligands” (Eur J Med Chem, 2012)
Active and inactive are the calls of the source. The calls are words filed in the database; no cut-off is given here.

Assays:
Cannabinoid receptor 1 = Cannabinoid receptor 1 (Homo sapiens, UniProt P21554); experiment: Displacement of [3H]CP55940 from human CB1 receptor expressed in CHO cell membranes after 1 hr by scintillation counting
Chain of Cannabinoid receptor 1 (P21554 whole entry): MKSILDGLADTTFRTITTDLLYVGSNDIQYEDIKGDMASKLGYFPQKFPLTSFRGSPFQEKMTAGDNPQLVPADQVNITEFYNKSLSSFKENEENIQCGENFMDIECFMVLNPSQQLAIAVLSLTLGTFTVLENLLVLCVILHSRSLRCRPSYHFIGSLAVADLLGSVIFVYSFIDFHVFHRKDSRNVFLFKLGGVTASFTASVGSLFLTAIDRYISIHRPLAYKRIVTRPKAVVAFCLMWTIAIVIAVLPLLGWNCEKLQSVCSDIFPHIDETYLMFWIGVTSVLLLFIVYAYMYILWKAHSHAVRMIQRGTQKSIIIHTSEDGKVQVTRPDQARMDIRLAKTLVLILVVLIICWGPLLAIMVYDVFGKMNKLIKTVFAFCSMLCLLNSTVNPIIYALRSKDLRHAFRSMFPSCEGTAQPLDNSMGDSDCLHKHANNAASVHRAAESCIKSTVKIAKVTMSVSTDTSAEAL

Cannabinoid receptor 2 [1] = target: T1, Cannabinoid receptor 2 (Homo sapiens, UniProt P34972); experiment: Displacement of [3H]CP55940 from human CB2 receptor expressed in CHO cell membranes after 1 hr by scintillation counting
T1 sequence (P34972 whole entry): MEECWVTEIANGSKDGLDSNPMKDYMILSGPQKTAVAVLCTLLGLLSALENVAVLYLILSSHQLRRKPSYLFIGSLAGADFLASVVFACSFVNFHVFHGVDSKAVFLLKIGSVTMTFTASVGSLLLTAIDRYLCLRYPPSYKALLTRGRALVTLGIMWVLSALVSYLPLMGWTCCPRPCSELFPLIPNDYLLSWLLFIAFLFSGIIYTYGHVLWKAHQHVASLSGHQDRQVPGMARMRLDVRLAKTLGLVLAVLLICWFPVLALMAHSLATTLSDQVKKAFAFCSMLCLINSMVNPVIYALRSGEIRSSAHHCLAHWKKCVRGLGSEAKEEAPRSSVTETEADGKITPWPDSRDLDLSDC

Homo sapiens = species: Homo sapiens; experiment: Selectivity ratio of Ki for human CB1 receptor to Ki for human CB2 receptor
Cannabinoid receptor 2 [2] = target: T1, Cannabinoid receptor 2; experiment: Agonist activity at human CB2 receptor expressed in CHO cell membranes after 1 hr by [35S]GTPgammaS binding assay; format: functional
Cannabinoid receptor 2 [3] = target: T1, Cannabinoid receptor 2; experiment: Agonist activity at human CB2 receptor expressed in CHO cell membranes after 1 hr by [35S]GTPgammaS binding assay relative to baseline; format: functional
Cannabinoid receptor 2 [4] = target: T1, Cannabinoid receptor 2; experiment: Antagonist activity at human CB2 receptor expressed in CHO cell membranes after 1 hr by [35S]GTPgammaS binding assay; format: functional

| Compound | Ki (Cannabinoid receptor 1) | Ki (Cannabinoid receptor 2 [1]) | Ratio Ki (Homo sapiens) | EC50 (Cannabinoid receptor 2 [2]) | Emax (Cannabinoid receptor 2 [3]) | Activity (Cannabinoid receptor 2 [4]) |
| --- | --- | --- | --- | --- | --- | --- |
| O=C(NC1CCCCC1)N1CC(Cc2ccccc2)C(c2ccc(Cl)cc2)=N1 (configuration not stated) | > 3 µM | > 3 µM |  |  |  |  |
| O=C(NC1CCCCC1)N1CC(Cc2ccccc2)C(c2ccccc2)=N1 (configuration not stated) | > 3 µM | 0.504 µM | > 6 | 0.297 µM | 136% |  |
| Cc1cc(C2=NN(C(=O)Nc3ccccc3)CC2Cc2ccccc2)ccc1Cl (configuration not stated) | > 3 µM | > 3 µM |  |  |  |  |
| Cc1cccc(C2=NN(C(=O)Nc3ccccc3)CC2Cc2ccccc2)c1 (configuration not stated) | > 3 µM | > 3 µM |  |  |  |  |
| O=C(Nc1ccccc1)N1CC(Cc2ccccc2)C(c2ccccc2)=N1 (configuration not stated) | > 3 µM | > 3 µM |  |  |  |  |
| Cc1cc(C2=NN(C(=O)NC3C4(C)CCC(C4)C3(C)C)CC2Cc2ccccc2)ccc1Cl (configuration not stated) | > 1 µM | 0.689 µM | > 4 | 0.749 µM | 183% |  |
| Cc1cc(C2=NN(C(=O)NC3CCCCC3)CC2Cc2ccccc2)ccc1Cl (configuration not stated) | > 3 µM | > 1 µM |  |  |  |  |
| Cc1cccc(C2=NN(C(=O)NC3CCCCC3)CC2Cc2ccccc2)c1 (configuration not stated) | > 3 µM | > 3 µM |  |  |  |  |
| CC(=O)N1CC(Cc2ccccc2)C(c2ccccc2)=N1 (configuration not stated) | > 3 µM | > 3 µM |  |  |  |  |
| Cc1ccc(CC2CN(C(=O)NC3CCCCC3)N=C2c2ccc(Cl)c(C)c2)cc1 (configuration not stated) | > 3 µM | 0.385 µM | > 8 | 0.371 µM | 187% |  |
| O=C(Nc1ccccc1)N1CC(Cc2ccccc2)C(c2ccc(Cl)cc2)=N1 (configuration not stated) | > 3 µM | > 3 µM |  |  |  |  |
| Cc1ccc(CC2CN(C(=O)Nc3ccccc3)N=C2c2ccc(Cl)c(C)c2)cc1 (configuration not stated) | > 3 µM | > 1 µM |  |  |  |  |
| Cc1cc(C2=NN(C(=O)NC3CCCCC3)CC2C2CCCC2)ccc1Cl (configuration not stated) | > 3 µM | 3.64 µM | 1.2 |  |  | Active |
| Cc1ccc(CC2CN(C(=O)NC3C4(C)CCC(C4)C3(C)C)N=C2c2ccc(Cl)c(C)c2)cc1 (configuration not stated) | > 1 µM | 0.251 µM | > 4 | 0.191 µM | 163% |  |
